How the values were obtained:
[1] = tested on: K1735 melanoma cells carrying the NRASG13D mutation; experiment: K1735 syngeneic mouse model, tumor growth; type: in vivo
From the text: Example 1 evaluated the efficacy of belvarafenib monotherapy, atezolizumab monotherapy, a combination therapy of belvarafenib and atezolizumab in a mutant K1735 subcutaneous mouse model.
The mouse strain was C3H/HeNCrlOri which is widely used for the K1735 syngeneic model. The mice were supplied by Orient Bio Inc., Korea.
The cell line was K1735 and was supplied by the American Type Culture Collection (ATCC). The K1735 cells are melanoma cells carrying the NRASG13D mutation. The cell culture in vitro media was Roswell Park Memorial Institute (RPMI) 10% fetal bovine serum (FBS) and incubation was at 5% C02 and 37° C. For the K1735 syngeneic model, cancer cells (1.5×10^8 cells/10 mL) were mixed with Hank's balanced salt solution (HBSS) and injected subcutaneously at 0.1 mL/head. Seven animals per group were treated with the vehicle (control), belvarafenib monotherapy at 7.5 mg/kg, belvarafenib monotherapy at 15 mg/kg, atezolizumab monotherapy at 10 mg/kg, belvarafenib (7.5 mg/kg) and atezolizumab (10 mg/kg) combination therapy, and belvarafenib (15 mg/kg) and atezolizumab (10 mg/kg) combination therapy. The experiment was done using 1st generation tumor tissue.
Belvarafenib dihydrochloride, 99.6% purity, that was stored at room temperature was used. Dosing was based on active ingredient free base and was corrected for assay and water content. The dosing vehicle was DMSO (5%), cremophore EL (5%), and deionized water (90%). Belvarafenib for dosing was dissolved in the vehicle. Belvarafenib oral doses of 7.5 mg/kg and 15 mg/kg were evaluated as monotherapies and in combination with atezolizumab. Belvarafenib was dose daily for 21 days.
Atezolizumab (TECENTRIQ©) that was stored at 2-8° C. was used. The dosing vehicle was saline and the dosing concentration was 5 mL/kg. An atezolizumab intravenous dose of 10 mg/kg was evaluated as a monotherapy and in combination with 7.5 mg/kg and 15 mg/kg belvarafenib. Atezolizumab was dosed three times a week for 3 weeks.
Tumor size. Tumor size was assessed by digital caliper (MITUTOYO CD-15CPX, MonotaRO Singapore, Japan) twice a week during the dosing period and calculated using the formula for an ellipsoid sphere (V=L×S2/2=mm3, where L=long diameter, and S=short diameter). Tumor size was recorded on the day of the body weight measurement and data was recorded on a tumor volume record sheet.
Relative tumor volume (RTV). RTV(%)=tumor volume/initial tumor volume×100.
Tumor Growth (TG). TG (%)=RTVdayx/RTVday0×100.
Relative tumor growth (RTG). The ratio of mean tumor volume on last measurement day to the mean tumor volume on Day 0.
Inhibition rate (IR). Inhibition of tumor growth was calculated relative to vehicle-treated controls. IR (%)=(1−mean relative tumor weight in treated group/mean relative tumor weight in control group)×100.
Maximum inhibition rate (MIR). MIR was the highest recorded IR (%) among the measured inhibition rate (%).
Statistical analysis of tumor size was performed with GraphPad Prism version 6 (GraphPad software, Inc., USA). Values were expressed as S.E.M. The significance of differences among multiple groups was assessed using a 2-way ANOVA. Post hoc pairwise comparison between groups was tested for significance using Dennett's method.

[2] = tested on: tumor infiltrated CD3+CD8+ T cells; experiment: flow cytometry of tumor infiltrated CD3+CD8+ T cells, K1735 model; type: in vivo, mouse; conditions: belvarafenib 15 mg/kg oral QDx21; tumor tissue at end of experiment
Procedure: Flow cytometry was used for tumor infiltrated CD3+CD8+ T cells analysis using BD FACSCanto™ IL (BD Biosciences) and FlowJo™ v 10.6.2 software (BD Biosciences). At the end of the experiment, tumor tissue, excluding mono and combination therapy groups using belvarafenib 7.5 mg/kg, were collected for evaluation of pharmacodynamics. Tumors were surgically dissected, washed twice with phosphate-buffered saline (PBS), and then chopped into 1 mm3 pieces. The chopped tumor pieces were digested in 7 mL of dissociation medium (RPMI medium with 10% FBS, collagenase type II at 2 mg/mL, collagenase type IV at 2 mg/mL, and DNase I at 1 mg/mL) for 30 minutes at 37° C., and filtered through a 70 μm cell strainer (BD Pharm, USA). The filtered cells were then washed twice with PBS. Remaining red blood cells were lysed using ammonium-chloride-potassium (ACK) solution. The cells, which had dissociated into single cells, were stained with Fe block (anti CD16/32, Ref. 14-0161-82, Invitrogen, USA) at 4° C. for 15 minutes to prevent nonspecific antibody binding. The cells were then stained with appropriate antibodies at 4° C. for 30 minutes. To assess the presence of CD3+CD8+ T cell population, cells were stained with PE Cy7-conjugated anti-CD3e (1:100 dilution) (clone: 145-2C11, Invitrogen, USA) and FITC-conjugated anti-CD8a (1:100 dilution) (clone: 53-6.7, Invitrogen, USA).

[3] = Phase I relative bioavailability and food effect study in healthy subjects; type: in vivo; conditions: 200 mg single dose
Procedure: In another Phase I, single dose, randomized, crossover relative bioavailability and food effect study in healthy subjects, the influence of a formulation change from the Phase I to Phase II tablet on belvarafenib exposure was evaluated. A total of 18 healthy subjects were enrolled in the study and received the following randomized treatments: one 150-mg and one 50-mg Phase I tablet in a fed state, two 100-mg Phase II tablets in a fed state, or two 100-mg Phase II tablets in a fasted state, with a 18-day washout between treatments.

[4] = tested on: BRAF- or RAS-mutant melanoma, NSCLC, CRC, and thyroid cancer cell lines; experiment: growth of cancer cell lines in vitro; type: cell-based
[5] = tested on: BRAF- and NRAS-mutant melanoma, KRAS mutant NSCLC, BRAF mutant CRC xenografts; experiment: mouse xenograft models, monotherapy; type: in vivo
From the text: The in vitro antitumor effects of belvarafenib have translated into efficacy in various mouse xenograft models.

[6] = tested on: phosphorylation of MEK and ERK in the MAPK pathway; experiment: MEK and ERK phosphorylation in cancer cell lines; type: cell-based; conditions: BRAF- or RAS-mutant melanoma, NSCLC, and CRC cell lines
[7] = K1735 syngeneic mouse model, body weight and clinical signs; type: in vivo
Procedure: Body weight. Body weight measurement was performed twice a week during the dosing period.
Relative body weight. Relative body weight (%)=body weight (g)/initial body weight (g)×100.
Maximum weight loss (MWL). MWL was the highest recorded weight loss (%) among the measured weight loss (%).

[8] = belvarafenib 7.5 mg/kg oral QDx21
[9] = belvarafenib 15 mg/kg oral QDx21

Cc1ccc2c(Nc3cccc(Cl)c3F)nccc2c1NC(=O)c1csc2c(N)ncnc12 [Belvarafenib, 4-amino-N-(1-((3-chloro-2-fluorophenyl)amino)-6-methylisoquinolin-5-yl)thieno[3,2-d]pyrimidine-7-carboxamide]
MIR / Max Inhib. (maximum inhibition rate) [1, 8]: 48.2%
MTV21 (mean tumor volume on day 21 of treatment) [1, 8]: 2014.8 mm^3
RTG (relative tumor growth) [1, 8]: 12.2
MIR / Max Inhib. (maximum inhibition rate) [1, 9]: 54.7%
MTV21 (mean tumor volume on day 21 of treatment) [1, 9]: 1816.8 mm^3
RTG (relative tumor growth) [1, 9]: 11.0
IR (Day 21) (inhibition rate, tumor growth inhibition) [1, 8]: 48.2%
IR (Day 21) (inhibition rate, tumor growth inhibition) [1, 9]: 54.7%
CD3^+CD8^+ T cells (%) [2]: 1.27%
serious adverse events, adverse events of special interest, deaths [3]: No serious adverse events, adverse events of special interest, or deaths were reported
inhibition of cell line growth [4]: inhibit the growth
inhibition of tumor growth [5]: dose-dependent inhibition of tumor growth
inhibition of phosphorylation of MEK and ERK [6]: inhibits phosphorylation of MEK and ERK
MWL / Max Wt. (maximum weight loss) [7, 8]: 2.8%
MWL / Max Wt. (maximum weight loss) [7, 9]: 2.2%
